Data from article PMC11241262, “Unravelling the Antifibrinolytic Mechanism of Action of the 1,2,3-Triazole Derivatives” (International Journal of Molecular Sciences, 2024).

How the values were obtained:
[1] = mostly cardiac surgery patients; ref [21],[29],[36],[37],[38]; cited from earlier work
[2] = target: T1, tissue-type plasminogen activator (tPA) (Homo sapiens, UniProt P00750); assay: tPA activity assay (chromogenic substrate); type: biochemical; settings: for activity on tPA's active site: at the tested concentrations
T1 construct: purchased abcam
Experimental: Tris hydrochloride, 1M, pH = 7.5 solution (Thermo Fisher Scientific, Waltham, MA, USA) was used as buffer. […] Recombinant human Tissue Plasminogen Activator (abcam, Cambridge, UK) served as the source of tPA, and was stored at −20 °C until used.
The assay measures the inhibition of tPA’s catalytic domain by the tested compounds employing a chromogenic substrate. Different concentrations of the studied molecules were incubated with tPA in a 96-well plate at 37 °C for 10 min. […] After, 20 μL of tPA’s substrate was added to each well. […] The slope for each assay was obtained from the initial and final absorbance values and their respective time points, or until complete substrate cleavage was achieved. (3) Absorbance slope=Abs2−Abs1/t2−t1
The Relative tPA Inhibition for each condition was calculated using Equation (2). Then, the Relative tPA Activity (%) was calculated by subtracting the relative tPA inhibition of each concentration from the total activity of the enzyme, obtained from a control without a compound.

[3] = ref [28],[29],[35]; cited from earlier work
[4] = test system: whole blood clot formation; assay: Whole blood coagulation assay (clot formation, no exogenous tPA); parameters: species or system human; settings: 40 µM, 37 °C, fibrinolysis not triggered
Experimental: (§1) Blood was obtained by venipuncture from healthy donors after they signed an informed consent form. Blood was transferred into vacuum non-anticoagulant Vacutainer® tubes (BD, Franklin Lakes, NJ, USA). Blood samples were immediately used for the assay after extraction.
Prior to blood addition, 20 µL of the evaluated compounds was added to glass tubes, in a final concentration of 40 µM. As a control clot, 20 µL of Tris HCl buffer with no compound was used. Next, 800 µL of blood was transferred to each tube followed by casual shaking to ensure proper mixing. Tubes were incubated at 37 °C for 30 min to allow clot formation and posterior lysis. Blood clotting and lysis were visually monitored and photographs were taken after 30 min.

plasmin = target: T2, plasmin (Homo sapiens, UniProt P00747); assay: Plasmin activity assay (Plasmin Inhibitor Screening Assay Kit); type: biochemical; settings: for inhibition at 500 µM: 0.5 mM; for inhibition at 5000 µM: 5 mM; for inhibition at 10000 µM: 10 mM; for inhibition at 15000 µM: 15 mM; for inhibition at 20000 µM: 20 mM; for inhibition at 30000 µM: 30 mM; for increase of IC50 of plasmin's catalytic domain compared to IC50 in plasma clot lysis assay: plasma clot lysis IC50 from Bosch-Sanz et al. [43]
T2 construct: purchased abcam
Experimental: The potential activity of the studied compounds on the catalytic domain of plasmin was evaluated using the Plasmin Inhibitor Screening Assay Kit (abcam), following the manufacturer’s instructions. Briefly, the assay measures the inhibition of plasmin’s activity by the tested compounds through the cleavage of a fluorogenic peptide substrate. The assay was performed in flat-bottom 96-well plates. Plasmin was pre-incubated with different concentrations of the tested compounds for 10 min at RT prior to the addition of the peptide substrate. Plasmin’s activity was then measured by monitoring the increase in fluorescence intensity over time using a microplate reader (Infinite M Plex, Tecan, Männedorf, Switzerland) at an Ex/Em of 360/450 nm, every minute at 37 °C for 10 min. The slope of each sample was determined using the initial and final fluorescence values and their respective time points. (1) Fluorescence slope=RFU2−RFU1/t2−t1
The Relative Plasmin Inhibition was calculated according to the manufacturer’s instructions using a control slope with no compound (enzyme control):(2) Relative Plasmin Inhibition%=SlopeControl−SlopeCompound/SlopeControl×100

whole blood clots [5] = assay: Whole blood dosage (effective antifibrinolytic dosage, tPA-triggered clot lysis); parameters: species or system human; settings: 10 µg/mL tPA, 37 °C
Experimental: as §1
Glass tubes were prepared with 20 µL of a mixture of tPA, in a final concentration of 10 µg/mL, and the evaluated compounds, in a final concentration of 10, 20, 40, or 60 µM in Tris HCl buffer. A control clot was obtained with 20 µL of tPA with no compound. Then, 800 µL of blood was transferred to each tube and tubes were monitored for clot formation and lysis. The assay was performed with casual shaking. […] The ex vivo effective dosage for each compound was determined by their ability to inhibit complete clot degradation. Photographs were taken after 24 h of incubation.

plasminogen = target: T3, plasminogen (Homo sapiens, UniProt P00747); assay: Plasminogen activation assay (conversion of plasminogen into plasmin by tPA in the absence of fibrin); type: biochemical; settings: for concentration at which compound increased tPA's activity by 50%: plasminogen-tPA isolated system, absence of fibrin
T3 construct: purchased abcam
Experimental: The conversion rate of plasminogen to plasmin was assessed using the Tissue-Type Plasminogen Activator Activity Assay Kit (abcam), following the manufacturer’s instructions. The assay measures the ability of tPA to activate plasminogen to plasmin in the presence of the tested compounds using a chromogenic substrate.
A solution of plasminogen and plasmin substrate was mixed with a previously prepared solution of the studied compound and tPA in Tris HCl buffer in a 96-well plate. The final concentration of tPA in each well was 6.8 µg/mL, in a final volume of 100 µL. Absorbance was measured on a microplate reader at a wavelength of 405 nm every minute at 37 °C for 2 h or until the system reached saturation. The absorbance slope of each sample was determined using Equation (3). The Relative Plasminogen Activation (%) for each condition was calculated with Equation (4), using a control without a compound (enzyme control). (4) Relative Plasminogen Activation (%)=SlopeCompound−SlopeControl/SlopeControl×100
Values were fitted to a linear model using MATLAB R2023a (The Math Works Inc., Natick, MA, USA). Concentrations at which each compound was able to increase plasminogen’s conversion by 50% in comparison to the enzyme control were extracted and compared for the three molecules.

whole blood clots [6] = assay: Whole blood clot lysis assay (D-dimer ELISA); parameters: species or system human; settings: 20 µM, 10 µg/mL tPA
Experimental: as §1
The quantification of D-dimer released during clot lysis was performed using the human D-dimer ELISA kit (Thermo Fisher Scientific). Directly after extraction, 500 µL of blood was transferred to four different glass tubes and allowed to clot for 10 min at 37 °C. Tubes were incubated at 37 °C for an additional 1 h to enable clot retraction from the walls of the glass tubes [53]. Then, 100 µL of a mixture of tPA and the studied compounds was added on top of each clot. […] As a control clot, 100 µL of tPA without compound in Tris HCl buffer was added. Tubes were incubated at 37 °C and, at time points of 5 min, 2, 4, 7, and 24 h, samples of each tube were extracted for D-dimer quantification. After gentle shaking of the tubes, 5 µL of the supernatant from each tube was pipetted into Eppendorf tubes and stored at −20 °C until assayed. The ELISA assay was performed as described by the manufacturer’s instructions and absorbance was read in a microplate reader at the wavelengths of 450 nm and 550 nm. […]

[7] = read-out: percentage of plasmin's inhibition

T3 sequence (P00747 20-810 limits assumed): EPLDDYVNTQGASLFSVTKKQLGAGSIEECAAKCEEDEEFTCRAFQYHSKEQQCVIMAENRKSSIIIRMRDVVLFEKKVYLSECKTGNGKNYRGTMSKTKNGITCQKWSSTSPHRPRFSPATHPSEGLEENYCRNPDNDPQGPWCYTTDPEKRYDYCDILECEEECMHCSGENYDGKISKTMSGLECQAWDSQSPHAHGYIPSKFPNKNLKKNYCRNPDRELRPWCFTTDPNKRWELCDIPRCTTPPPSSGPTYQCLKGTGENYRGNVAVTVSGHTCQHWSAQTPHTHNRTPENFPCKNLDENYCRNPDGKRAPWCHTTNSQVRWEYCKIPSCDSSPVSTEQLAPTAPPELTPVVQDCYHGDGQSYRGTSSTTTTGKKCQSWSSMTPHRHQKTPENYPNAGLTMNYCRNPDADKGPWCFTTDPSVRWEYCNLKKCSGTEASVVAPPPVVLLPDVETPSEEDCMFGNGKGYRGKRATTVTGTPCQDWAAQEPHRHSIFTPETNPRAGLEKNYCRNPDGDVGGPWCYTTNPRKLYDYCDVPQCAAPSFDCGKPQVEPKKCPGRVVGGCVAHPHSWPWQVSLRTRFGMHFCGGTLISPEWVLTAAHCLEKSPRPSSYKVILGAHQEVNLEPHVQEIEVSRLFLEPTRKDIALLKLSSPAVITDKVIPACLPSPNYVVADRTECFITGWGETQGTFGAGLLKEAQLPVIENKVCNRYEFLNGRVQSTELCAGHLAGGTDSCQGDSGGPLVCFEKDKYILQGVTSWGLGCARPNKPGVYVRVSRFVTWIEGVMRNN
T1 sequence (P00750 36-562): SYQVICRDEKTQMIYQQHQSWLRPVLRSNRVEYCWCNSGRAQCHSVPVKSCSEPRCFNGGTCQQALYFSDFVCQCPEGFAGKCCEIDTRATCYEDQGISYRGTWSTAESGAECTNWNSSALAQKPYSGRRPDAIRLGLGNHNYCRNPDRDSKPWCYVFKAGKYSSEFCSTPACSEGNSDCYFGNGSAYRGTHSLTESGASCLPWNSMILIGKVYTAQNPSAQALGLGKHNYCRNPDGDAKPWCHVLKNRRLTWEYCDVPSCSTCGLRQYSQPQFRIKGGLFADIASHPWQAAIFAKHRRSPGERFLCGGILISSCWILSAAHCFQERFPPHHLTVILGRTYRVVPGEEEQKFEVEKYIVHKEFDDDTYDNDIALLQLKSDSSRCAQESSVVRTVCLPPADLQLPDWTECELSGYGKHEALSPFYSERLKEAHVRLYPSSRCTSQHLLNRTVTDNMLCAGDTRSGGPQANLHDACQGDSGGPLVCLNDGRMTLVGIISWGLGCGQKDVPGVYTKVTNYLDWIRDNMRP
T2 sequence (P00747 97-580 limits assumed): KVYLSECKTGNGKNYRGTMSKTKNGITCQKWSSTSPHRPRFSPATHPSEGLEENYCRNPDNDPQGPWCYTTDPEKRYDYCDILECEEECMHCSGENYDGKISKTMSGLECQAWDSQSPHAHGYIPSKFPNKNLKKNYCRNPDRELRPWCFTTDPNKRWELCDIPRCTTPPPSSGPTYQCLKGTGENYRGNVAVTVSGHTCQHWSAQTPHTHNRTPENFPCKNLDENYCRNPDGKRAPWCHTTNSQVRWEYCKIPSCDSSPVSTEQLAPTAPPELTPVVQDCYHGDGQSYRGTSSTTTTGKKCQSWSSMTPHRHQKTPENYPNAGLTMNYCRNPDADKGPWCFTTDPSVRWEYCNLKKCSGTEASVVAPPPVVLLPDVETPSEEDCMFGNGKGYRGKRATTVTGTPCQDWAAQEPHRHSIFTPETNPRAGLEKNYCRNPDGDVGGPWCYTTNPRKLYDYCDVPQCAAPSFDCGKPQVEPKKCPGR
T2 sequence (P00747 581-810 limits assumed): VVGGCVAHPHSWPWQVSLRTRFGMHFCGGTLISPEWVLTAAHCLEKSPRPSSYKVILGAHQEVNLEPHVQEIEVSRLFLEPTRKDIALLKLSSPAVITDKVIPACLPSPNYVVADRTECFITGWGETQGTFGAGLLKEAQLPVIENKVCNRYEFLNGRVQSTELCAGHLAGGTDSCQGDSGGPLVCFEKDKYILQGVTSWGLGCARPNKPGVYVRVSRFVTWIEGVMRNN

percentage of tPA's activity ([2]; 0.5 mM) | percentage of tPA's activity ([2]; 1 mM) | percentage of tPA's activity ([2]; 5 mM) | percentage of tPA's activity ([2]; 10 mM) | percentage of tPA's activity ([2]; 15 mM) | activity on tPA's active site [2] | inhibition at 500 µM (plasmin; [7]) | inhibition at 5000 µM (plasmin; [7]) | inhibition at 10000 µM (plasmin; [7]) | inhibition at 15000 µM (plasmin; [7]) | inhibition at 20000 µM (plasmin; [7]) | inhibition at 30000 µM (plasmin; [7]) | increase of IC50 of plasmin's catalytic domain compared to IC50 in plasma clot lysis assay (plasmin) | concentration at which compound increased tPA's activity by 50% (plasminogen) | SMILES | effect on clot formation [4] | effective dosage (concentration preventing complete clot degradation after 24 h) (whole blood clots [5]) | further results
92.08% | 89.90% | 87.18% | 87.33% | 84.84% | no activity | 2.61% | 12.3% | 22.4% | 28% | 29.1% | 53.1% | 1000 fold | 283.01 µM | NC[C@H]1CC[C@H](C(=O)O)CC1 [TXA, tranexamic acid, reference compound] | do not have any effect | 60 µM | increased incidence of postoperative seizures [1]: 7 fold; cerebrospinal fluid concentration as share of plasma concentration [3]: approximately 10%; inhibition at 50000 µM (plasmin; 50 mM, read-out: percentage of plasmin's inhibition): 59.2%
96.53% | 94.21% | 96.95% | 91.20% | 101.89% | no activity | 0.56% | 4.3% | 7.36% | 11.6% | 48% | 76.6% | 1000 fold | 4.67 µM | O=c1[nH]c(-c2cn(C3CCNCC3)nn2)no1 [compound 1] | do not have any effect | 10 µM | IC50 (plasmin; inhibition of plasmin's cleavage of a synthetic substrate by 50%): 20.6 ± 0.78 mM; potency relative to TXA in catalyzing plasminogen's activation by tPA (plasminogen; from concentration enhancing tPA's activity by 50%): more than 50 times; improvement in antifibrinolytic activity over TXA (D-dimer quantification) (whole blood clots [6]; whole blood): more than 2 fold; D-dimer release lower than for compound 5 (whole blood clots [6]; timepoint 24 h): around 35%
